Measured values from ChEMBL document CHEMBL5634122, “Integrated fragment-based drug design and virtual screening techniques for exploring the antidiabetic potential of thiazolidine-2,4-diones: Design, synthesis and in vivo studies” (Eur J Med Chem, 2023).

How the values were obtained:
[1] = Toxicity in Swiss albino mouse assessed as reduction in body weight at 10 mg/kg, po measured for 15 days; format: organism-based; settings: in vivo, 360 h, time 15 day
[2] = tested on: HEK293; test: Cytotoxicity against HEK293 cells assessed as reduction in cell viability at 100 to 8000 nM incubated for 24 hrs by MTT assay; format: toxicity, cell-based; settings: human, hek293, 24 h, 8 µM, dose 100-8000 nM
[3] = Toxicity in Zebra fish assessed as change in body weight at 10 mg/kg measured after 10 days; format: organism-based, Danio rerio; settings: zebrafish, in vivo, 240 h, time 10 day
[4] = target: T1, Peroxisome proliferator-activated receptor gamma (Homo sapiens, UniProt P37231); test: Agonist activity at PPARgamma in HEK293 cells assessed as transactivation incubated for 5 to 10 mins by microplate reader analysis; format: cell-based
T1 sequence (P37231 whole entry): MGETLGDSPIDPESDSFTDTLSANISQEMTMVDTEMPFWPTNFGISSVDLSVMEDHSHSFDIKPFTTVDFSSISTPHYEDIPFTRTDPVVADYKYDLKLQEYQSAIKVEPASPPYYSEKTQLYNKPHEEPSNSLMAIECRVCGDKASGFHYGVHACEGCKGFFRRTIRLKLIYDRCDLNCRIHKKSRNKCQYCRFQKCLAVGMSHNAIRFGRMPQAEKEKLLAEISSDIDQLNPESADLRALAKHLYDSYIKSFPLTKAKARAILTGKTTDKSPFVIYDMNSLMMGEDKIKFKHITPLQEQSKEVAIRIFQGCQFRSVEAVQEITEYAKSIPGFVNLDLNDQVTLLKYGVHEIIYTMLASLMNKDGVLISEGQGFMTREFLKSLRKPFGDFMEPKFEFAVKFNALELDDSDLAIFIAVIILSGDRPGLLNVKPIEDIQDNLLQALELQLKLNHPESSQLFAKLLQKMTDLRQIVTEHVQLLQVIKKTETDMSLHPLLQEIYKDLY

[5] = tested on: Mus musculus; test: Antidiabetic activity in STZ-induced Swiss albino diabetic mouse model assessed as reduction in LDL level in serum at 36 mg/kg, po (reference value: 61.83 +/- 4.08 mg/dl); format: functional
[6] = tested on: Mus musculus; test: Antidiabetic activity in STZ-induced Swiss albino diabetic mouse model assessed as blood glucose levels at 36 mg/kg, po measured after 60 mins by oral glucose tolerance test (reference value: 199.16 mg/dl); format: functional; settings: 1 h
[7] = tested on: Mus musculus; test: Antidiabetic activity in STZ-induced Swiss albino diabetic mouse model assessed as reduction in triglyceride level in serum at 36 mg/kg, po (reference value: 131.83 +/- 12.12 mg/dl); format: functional
[8] = Toxicity in Swiss albino mouse assessed as reduction in body weight at 36 mg/kg, po measured for 15 days; format: organism-based; settings: in vivo, 360 h, time 15 day
[9] = tested on: Mus musculus; test: Antidiabetic activity in STZ-induced Swiss albino diabetic mouse model assessed as blood glucose levels at 36 mg/kg, po measured immediately by oral glucose tolerance test (reference value: 234.5 mg/dl); format: functional
[10] = tested on: Danio rerio; test: Antidiabetic activity in STZ-induced Zebra fish diabetic model assessed as blood glucose level at 36 mg/kg measured after 10 days; format: functional; settings: time 10 day
[11] = tested on: Mus musculus; test: Antidiabetic activity in STZ-induced Swiss albino diabetic mouse model assessed as blood glucose levels at 36 mg/kg, po measured after 120 mins by oral glucose tolerance test; format: functional; settings: 2 h
[12] = tested on: Mus musculus; test: Antidiabetic activity in STZ-induced Swiss albino diabetic mouse model assessed as blood glucose levels at 36 mg/kg, po measured on day 1,3,5,7 and 15 by glucometer; format: functional; settings: time 15 day
[13] = tested on: Mus musculus; test: Antidiabetic activity in STZ-induced Swiss albino diabetic mouse model assessed as increase in HDL level in serum at 36 mg/kg, po (reference value: 26 +/- 4.83 mg/dl); format: functional
[14] = tested on: Mus musculus; test: Antidiabetic activity in STZ-induced Swiss albino diabetic mouse model assessed as blood glucose levels at 36 mg/kg, po measured after 30 mins by oral glucose tolerance test (reference value: 213.5 mg/dl); format: functional; settings: 0.5 h
[15] = tested on: Mus musculus; test: Antidiabetic activity in STZ-induced Swiss albino diabetic mouse model assessed as increase in total cholesterol level in serum at 36 mg/kg, po (reference value: 51.16 +/- 6.89 mg/dl); format: functional

Compound | Activity [2] | EC50 [4] [nM] | other results
Cc1ccc(CN2C(=O)S/C(=C\c3ccc(Nc4cccc(Cl)c4)s3)C2=O)cc1 | Non-Toxic |  | Activity [1]: Non-Toxic; Activity [3]: Non-Toxic
Cc1ccc(CN2C(=O)S/C(=C\c3ccc(Nc4ccc([N+](=O)[O-])cc4)s3)C2=O)cc1 | Non-Toxic | 1550 | 
Cc1ccc(CN2C(=O)S/C(=C\c3ccc(Oc4ccc5ccccc5c4)s3)C2=O)cc1 | Non-Toxic | 3570 | 
COc1cccc(CN2C(=O)S/C(=C\c3ccc(Nc4ccc(Cl)cc4)cc3)C2=O)c1 | Non-Toxic |  | 
Cc1ccc(CN2C(=O)S/C(=C\c3ccc(Oc4ccc([N+](=O)[O-])cc4)s3)C2=O)cc1 | Non-Toxic | 1540 | 
Cc1ccc(CN2C(=O)S/C(=C\c3ccc(Nc4ccccc4Cl)s3)C2=O)cc1 | Non-Toxic |  | Activity [3]: Non-Toxic
Cc1ccc(CN2C(=O)S/C(=C\c3ccc(Nc4ccc(Cl)cc4)cc3)C2=O)cc1 | Non-Toxic | 1360 | 
Cc1ccc(CN2C(=O)S/C(=C\c3ccc(Nc4ccc(Cl)cc4)s3)C2=O)cc1 | Non-Toxic | 1470 | 
Cc1ccc(CN2C(=O)S/C(=C\c3ccc(OCc4ccccc4)s3)C2=O)cc1 | Non-Toxic | 2010 | 
COc1cccc(CN2C(=O)S/C(=C\c3ccc(Nc4cccc(Cl)c4)cc3)C2=O)c1 | Non-Toxic |  | 
Cc1ccc(CN2C(=O)S/C(=C\c3ccc(Nc4ccccc4[N+](=O)[O-])s3)C2=O)cc1 | Non-Toxic |  | 
Cc1ccc(CN2C(=O)S/C(=C\c3ccc(Oc4ccccc4)s3)C2=O)cc1 | Non-Toxic | 2740 | 
CCc1ccc(CCOc2ccc(CC3SC(=O)NC3=O)cc2)nc1 (centres undefined) [PIOGLITAZONE] | Non-Toxic |  | Activity [5]: 30.16 mg/dL; Activity [6]: 150.83 mg/dL; Activity [7]: 52 mg/dL; Activity [8]: Non-Toxic; Activity [9]: 234.8 mg/dL; Activity [10]: 112 mg/dL; Activity [11]: 112 mg/dL; Activity [12]: 132.2 mg/dL; Activity [13]: 26 mg/dL; Activity [14]: 214.16 mg/dL; Activity [15]: 51.16 mg/dL
